The results in this text go back to ChEMBL document CHEMBL1155252 (Bioorg Med Chem, 2009).

Experiment [1] deals with cGMP-specific 3',5'-cyclic phosphodiesterase (Homo sapiens, UniProt O76074). The experiment in a line: Inhibition of human PDE5 by scintillation proximity assay. For orientation: Scintillation proximity formats need no separation of bound from free tracer.
The target in experiment [2] is 3',5'-cyclic-AMP phosphodiesterase 4D (Homo sapiens, UniProt Q08499). The experiment in a line: Inhibition of PDE4D by luciferase-coupled assay.
Sequence of 3',5'-cyclic-AMP phosphodiesterase 4D (Q08499 whole entry): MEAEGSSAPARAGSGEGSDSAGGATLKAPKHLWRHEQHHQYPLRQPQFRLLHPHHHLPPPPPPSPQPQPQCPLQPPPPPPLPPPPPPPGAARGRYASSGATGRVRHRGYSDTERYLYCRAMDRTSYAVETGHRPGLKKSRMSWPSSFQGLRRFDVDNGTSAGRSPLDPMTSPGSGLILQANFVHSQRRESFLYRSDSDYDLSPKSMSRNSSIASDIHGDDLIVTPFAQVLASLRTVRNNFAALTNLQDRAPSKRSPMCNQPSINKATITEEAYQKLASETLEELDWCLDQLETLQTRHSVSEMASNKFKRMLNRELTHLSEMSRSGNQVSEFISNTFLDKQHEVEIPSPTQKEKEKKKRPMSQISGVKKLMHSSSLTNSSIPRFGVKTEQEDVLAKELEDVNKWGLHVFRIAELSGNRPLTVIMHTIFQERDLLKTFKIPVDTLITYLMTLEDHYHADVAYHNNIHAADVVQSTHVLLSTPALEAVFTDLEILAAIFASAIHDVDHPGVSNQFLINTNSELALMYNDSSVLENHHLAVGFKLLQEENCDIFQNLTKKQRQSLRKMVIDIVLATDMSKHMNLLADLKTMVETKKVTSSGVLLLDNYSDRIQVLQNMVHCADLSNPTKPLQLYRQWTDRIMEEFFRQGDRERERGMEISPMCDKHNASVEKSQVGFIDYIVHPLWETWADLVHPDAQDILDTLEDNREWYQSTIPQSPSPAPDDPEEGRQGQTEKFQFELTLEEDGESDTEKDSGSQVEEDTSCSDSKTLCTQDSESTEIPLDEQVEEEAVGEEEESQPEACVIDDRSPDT
A short description of experiment [3]: Inhibition of bovine PDE3 by scintillation proximity assay. Also noted: species or system Bos taurus.
The target of experiment [4] is 3',5'-cyclic-AMP phosphodiesterase 4B (Homo sapiens, UniProt Q07343). The experiment in a line: Inhibition of PDE4B by luciferase-coupled assay.
Sequence of 3',5'-cyclic-AMP phosphodiesterase 4B (Q07343 whole entry): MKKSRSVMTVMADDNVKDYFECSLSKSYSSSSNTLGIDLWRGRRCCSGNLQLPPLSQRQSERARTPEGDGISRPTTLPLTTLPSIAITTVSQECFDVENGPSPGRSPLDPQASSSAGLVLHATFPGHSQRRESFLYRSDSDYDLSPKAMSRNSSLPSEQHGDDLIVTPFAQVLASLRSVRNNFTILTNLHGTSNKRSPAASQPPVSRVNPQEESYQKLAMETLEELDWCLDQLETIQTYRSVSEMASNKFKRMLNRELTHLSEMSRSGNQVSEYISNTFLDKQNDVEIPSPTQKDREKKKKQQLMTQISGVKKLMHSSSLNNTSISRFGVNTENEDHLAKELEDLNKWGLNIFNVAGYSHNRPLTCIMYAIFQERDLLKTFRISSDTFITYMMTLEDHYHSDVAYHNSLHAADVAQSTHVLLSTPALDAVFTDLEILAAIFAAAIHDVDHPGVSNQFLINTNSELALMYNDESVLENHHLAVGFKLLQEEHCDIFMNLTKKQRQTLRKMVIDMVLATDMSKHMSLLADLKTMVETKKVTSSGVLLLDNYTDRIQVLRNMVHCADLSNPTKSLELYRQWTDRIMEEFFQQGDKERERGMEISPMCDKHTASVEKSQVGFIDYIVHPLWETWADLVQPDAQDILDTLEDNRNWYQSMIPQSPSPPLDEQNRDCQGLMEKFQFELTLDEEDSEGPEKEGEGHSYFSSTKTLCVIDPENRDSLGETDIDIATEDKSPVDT
A short description of experiment [5]: Selectivity for PDE4B over PDE4D.

A value given as a limit tells only on which side of the number the result lay.

Consider `CC(C)(C)C1CCc2c(sc(NC(=O)c3ccncc3)c2C(N)=O)C1` (stereo unspecified), for which the IC50 in experiment [1] is more than 10000 nM; in experiment [2], 316 nM; in experiment [4], 200 nM. Also, the pIC50 in experiment [3] was less than 5.
As to `CC1(C)CCc2c(sc(NC(=O)c3ccccc3[N+](=O)[O-])c2C(N)=O)C1`, the concentration for half-maximal inhibition (IC50) in experiment [2] was 398 nM; in experiment [4] it was 50.1 nM.
The like results for `NC(=O)c1c(NC(=O)c2ccccc2[N+](=O)[O-])sc2c1CCCC2` were, in that order, 6310 nM and 1260 nM.
Turning to `CCCCCC1CCc2c(sc(NC(=O)c3ccccc3[N+](=O)[O-])c2C(N)=O)C1` (stereo unspecified), the IC50 in experiment [2] was 2510 nM; in experiment [4], 100 nM.
Regarding `CCC1CCc2c(sc(NC(=O)c3ccccc3[N+](=O)[O-])c2C(N)=O)C1` (stereo unspecified), the Selectivity Index in experiment [5] came to 10. Further, the IC50 in experiment [2] was 126 nM; in experiment [4], 10 nM.
`CC1CCCc2sc(NC(=O)c3ccccc3[N+](=O)[O-])c(C(N)=O)c21` (stereo unspecified): the IC50 was 31600 nM in experiment [2] and 5010 nM in experiment [4].
For `CC1CCc2sc(NC(=O)c3ccccc3[N+](=O)[O-])c(C(N)=O)c2C1` (stereo unspecified), the IC50 in experiment [2] was 6310 nM; in experiment [4], 2000 nM.
In the case of `CC1CCc2c(sc(NC(=O)c3ccc([N+](=O)[O-])cc3)c2C(N)=O)C1` (stereo unspecified), the IC50 in experiment [2] and in experiment [4] was more than 2510 nM in each case.
Regarding `Cc1cccc(C)c1C1CCCc2sc(NC(=O)c3ccccc3[N+](=O)[O-])c(C(N)=O)c21` (stereo unspecified), the IC50 in experiment [2] was 2510 nM; in experiment [4], 5010 nM.
Take `NC(=O)c1c(NC(=O)c2ccccc2[N+](=O)[O-])sc2c1CCC(c1ccccc1)C2` (stereo unspecified): the IC50 was 1580 nM in experiment [2] and 398 nM in experiment [4].
Take `CC1CCc2c(sc(NC(=O)c3cccc([N+](=O)[O-])c3)c2C(N)=O)C1` (stereo unspecified): the IC50 was more than 2510 nM in experiment [2] and 631 nM in experiment [4].
In experiment [4], `CC(C)(C)C1CCc2c(sc(NC(=O)c3c(F)cccc3F)c2C(N)=O)C1` (stereo unspecified) had an IC50 of 79.4 nM.
Turning to `CC(C)(C)C1CCc2sc(NC(=O)c3ccccc3[N+](=O)[O-])c(C(N)=O)c2C1` (stereo unspecified), the figures for the IC50 in experiment [2] and in experiment [4] were 6310 nM and 1260 nM, respectively.
Compound `CNC(=O)c1c(NC(=O)c2c(F)cccc2F)sc2c1CCC(C(C)(C)C)C2` (stereo unspecified) had an IC50 in experiment [4] of more than 10000 nM.
`CC(C)(C)C1CCc2c(sc(NC(=O)c3ccccc3[N+](=O)[O-])c2C(N)=O)C1` (stereo unspecified): the IC50 in experiment [2] is 126 nM; in experiment [4] it was 25.1 nM.

One may read the IC50 as the point on the concentration scale where inhibition reaches its midpoint. A word on the pIC50: it is the negative decadic logarithm of the IC50, by convention in mol/L. A higher pIC50 goes with a small IC50.
